From the supplement of paper PMC10307832

Tests used:
Test in all cases: relative viability (nuclei count vs DMSO), 5 days (fraction); higher = more cells survive
Tipifarnib + OSI-027 = compound: Cn1cncc1[C@@](N)(c1ccc(Cl)cc1)c1ccc2c(c1)c(-c1cccc(Cl)c1)cc(=O)n2C [Tipifarnib] + COc1cccc2cc(-c3nc([C@H]4CC[C@H](C(=O)O)CC4)n4ncnc(N)c34)[nH]c12 [OSI-027] (partner 0.5 µM)
How it was run: (§1)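 Relative viability was taken as the ratio of nuclei in treated wells to nuclei in vehicle wells. Lung cancer cell lines in 1536-well plates received compounds by pin tool one day after seeding, either one drug alone or a fixed anchor-drug dose plus five library-drug doses (not always all listed) in √10 steps. Nuclei were counted on 4× images after 5 days of treatment, and values are medians of duplicate plates.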

Tipifarnib + Lapatinib = compound: Cn1cncc1[C@@](N)(c1ccc(Cl)cc1)c1ccc2c(c1)c(-c1cccc(Cl)c1)cc(=O)n2C [Tipifarnib] + CS(=O)(=O)CCNCc1ccc(-c2ccc3ncnc(Nc4ccc(OCc5cccc(F)c5)c(Cl)c4)c3c2)o1 [Lapatinib] (partner 2 µM)
How it was run: as §1

Tipifarnib + Linsitinib = compound: Cn1cncc1[C@@](N)(c1ccc(Cl)cc1)c1ccc2c(c1)c(-c1cccc(Cl)c1)cc(=O)n2C [Tipifarnib] + C[C@]1(O)C[C@@H](c2nc(-c3ccc4ccc(-c5ccccc5)nc4c3)c3c(N)nccn32)C1 [Linsitinib] (partner 1 µM)
How it was run: as §1

Tipifarnib + Alpelisib = compound: Cn1cncc1[C@@](N)(c1ccc(Cl)cc1)c1ccc2c(c1)c(-c1cccc(Cl)c1)cc(=O)n2C [Tipifarnib] + Cc1nc(NC(=O)N2CCC[C@H]2C(N)=O)sc1-c1ccnc(C(C)(C)C(F)(F)F)c1 [Alpelisib] (partner 2 µM)
How it was run: as §1

| Cell Line | relative viability (Tipifarnib + OSI-027; first compound 0.01 µM) | relative viability (Tipifarnib + OSI-027; first compound 0.03162 µM) | relative viability (Tipifarnib + OSI-027; first compound 0.1 µM) | relative viability (Tipifarnib + OSI-027; first compound 0.3162 µM) | relative viability (Tipifarnib + OSI-027; first compound 1 µM) | relative viability (Tipifarnib + Lapatinib; first compound 0.01 µM) | relative viability (Tipifarnib + Lapatinib; first compound 0.03162 µM) | relative viability (Tipifarnib + Lapatinib; first compound 0.1 µM) | relative viability (Tipifarnib + Lapatinib; first compound 0.3162 µM) | relative viability (Tipifarnib + Lapatinib; first compound 1 µM) | relative viability (Tipifarnib + Linsitinib; first compound 0.01 µM) | relative viability (Tipifarnib + Linsitinib; first compound 0.03162 µM) | relative viability (Tipifarnib + Linsitinib; first compound 0.1 µM) | relative viability (Tipifarnib + Linsitinib; first compound 0.3162 µM) | relative viability (Tipifarnib + Linsitinib; first compound 1 µM) | relative viability (Tipifarnib + Alpelisib; first compound 0.01 µM) | relative viability (Tipifarnib + Alpelisib; first compound 0.03162 µM) | relative viability (Tipifarnib + Alpelisib; first compound 0.1 µM) | relative viability (Tipifarnib + Alpelisib; first compound 0.3162 µM) | relative viability (Tipifarnib + Alpelisib; first compound 1 µM) |
| --- | --- | --- | --- | --- | --- | --- | --- | --- | --- | --- | --- | --- | --- | --- | --- | --- | --- | --- | --- | --- |
| 201T | 0.706 | 0.805 | 0.692 | 0.46 | 0.368 | 0.988 | 1.05 | 0.965 | 0.947 | 0.866 | 1.04 | 1.04 | 0.989 | 0.949 | 1.07 | 1.01 | 1.04 | 1.04 | 0.98 | 0.977 |
| A549 |  |  |  |  |  | 1.09 | 0.793 | 0.643 | 0.439 | 0.302 | 0.707 | 0.596 | 0.49 | 0.325 | 0.233 | 0.759 | 0.649 | 0.398 | 0.346 | 0.283 |
| A-427 | 0.406 | 0.316 | 0.365 | 0.361 | 0.254 | 1 | 1.13 | 1.08 | 0.893 | 0.46 | 1.18 | 1.11 | 1.05 | 1.09 | 1.09 | 1.21 | 1.1 | 1.06 | 1.02 | 0.952 |
| ABC-1 | 0.554 |  | 0.414 | 0.32 | 0.267 | 1.37 | 1.39 | 1.58 | 1.39 | 1.59 | 0.827 |  | 0.76 | 0.665 | 0.554 | 1.01 |  | 0.869 | 0.721 | 0.822 |
| BEN | 0.296 | 0.289 | 0.303 | 0.262 | 0.309 | 0.743 | 0.842 | 0.629 | 0.578 | 0.568 | 1.03 | 1.18 | 0.835 | 0.696 | 0.716 | 1.14 | 0.915 | 1.06 | 0.811 | 0.769 |
| CAL-12T | 0.565 | 0.358 | 0.37 | 0.272 | 0.232 | 0.709 | 0.716 | 0.619 | 0.525 | 0.393 | 0.812 | 0.606 | 0.616 | 0.387 | 0.403 | 1.33 | 0.851 | 0.555 | 0.417 | 0.693 |
| COR-L23 | 0.572 | 0.36 | 0.261 | 0.24 | 0.202 | 0.942 | 0.641 | 0.739 | 0.582 | 0.4 | 1.01 | 0.628 | 0.614 | 0.374 | 0.409 | 0.808 | 0.525 | 0.431 | 0.373 | 0.338 |
| COR-L 105 | 0.759 | 0.588 | 0.5 | 0.427 | 0.417 | 0.418 | 0.317 | 0.349 | 0.378 | 0.296 | 0.88 | 0.855 | 0.674 | 0.554 | 0.668 | 1.12 | 0.891 | 0.731 | 0.46 | 0.649 |
| Calu-6 |  |  |  |  |  | 1.02 | 0.801 | 0.771 | 0.599 | 0.535 | 0.941 | 0.679 | 0.645 | 0.515 | 0.444 | 0.831 | 0.667 | 0.609 | 0.412 | 0.505 |
| ChaGo-K-1 | 0.483 | 0.548 | 0.602 | 0.442 | 0.332 |  |  |  |  |  |  |  |  |  |  |  |  |  |  |  |
| EBC-1 |  |  |  |  |  | 0.199 | 0.214 | 0.2 | 0.188 | 0.215 | 0.854 | 0.288 | 0.332 | 0.265 | 0.212 | 0.697 | 0.371 | 0.36 | 0.331 | 0.274 |
| EKVX | 0.728 | 0.7 | 0.699 | 0.516 | 0.39 | 0.202 | 0.21 | 0.185 | 0.189 | 0.17 | 1.06 | 1.11 | 0.972 | 0.755 | 0.657 | 0.895 | 0.883 | 0.83 | 0.595 | 0.652 |
| EMC-BAC-2 | 0.365 | 0.3 | 0.364 | 0.3 | 0.266 | 0.897 | 0.854 | 0.771 | 0.718 | 0.351 | 0.855 | 0.798 | 0.689 | 0.706 | 0.636 | 0.741 | 0.665 | 0.684 | 0.651 | 0.566 |
| EPLC-272H | 0.276 | 0.229 | 0.247 | 0.267 | 0.212 | 1.02 | 0.88 | 0.761 | 0.64 | 0.216 | 1.17 | 1.16 | 1.21 | 0.83 | 0.531 | 1.06 | 0.823 | 0.951 | 0.613 | 0.46 |
| H3255 | 0.757 | 0.704 | 0.61 | 0.471 | 0.438 | 0.249 | 0.3 | 0.27 | 0.232 | 0.214 | 1.06 | 0.895 | 0.916 | 0.591 | 0.684 | 0.759 | 0.734 | 0.627 | 0.482 | 0.497 |
| HARA | 0.618 | 0.408 | 0.298 | 0.137 | 0.147 | 0.737 | 0.682 | 0.735 | 0.664 | 0.332 | 1.08 | 0.925 | 0.956 | 0.94 | 0.87 | 0.924 | 0.792 | 0.781 | 0.662 | 0.653 |
| HCC-15 | 0.555 | 0.467 | 0.293 | 0.255 | 0.191 | 0.802 | 0.702 | 0.639 | 0.488 | 0.215 | 0.78 | 0.751 | 0.627 | 0.544 | 0.548 | 0.827 | 0.646 | 0.584 | 0.451 | 0.367 |
